According to patent US20050282830A1, “Use of dipyridamole or mopidamole for treatment and prevention of MMP-9-dependent disorders” (Boehringer Ingelheim International GmbH, priority 2003, published 2005):

Assays:
[1] = tested on: matrix metalloproteinase-9 (MMP-9); test: Inhibition of MMP-9 gene expression/synthesis in platelet-monocyte aggregates adherent to collagen type I; format: cell-based, Human; settings: adhered to collagen type I for 18 hours, 9 independent experiments
Protocol: Inhibition of MMP-9 Gene Expression in Platelet-Monocyte Aggregates by the Dipyridamole Component of Aggrenox® (AGG)
Aggrenox® (AGG) is a fixed dosed combination of extended-release dipyridamole (DIP) and aspirin (ASA). AGG is recommended in the protection of secondary stroke and transient ischemic attacks. It also increases tissue perfusion in patients with stable angina or Raynaud's disease. It was determined if AGG blocked the synthesis of inflammatory genes produced by platelet-monocyte aggregates.
Human platelets and monocytes were pretreated with Dipyridamole (DIP) (5 μg/ml), ASA (625 ng/ml), or a DIP/ASA mixture (AGG); 5 μg/ml: 625 ng/ml, an 8:1 ratio of DIP/ASA). The cells were adhered to collagen type I. Synthesis of matrix metalloproteinase-9 (MMP-9) was determined. […] AGG and DIP reduced MMP-9 expression (53%, 61%, and a 17% reduction in MMP-9 synthesis compared to untreated cells for AGG, DIP, and ASA, respectively; results shown in FIG. 1). The inhibitory actions of AGG on gene expression are due to the DIP component of this |drug|.
FIG. 1: The Dipyridamole component of Aggrenox attenuates MMP-9 synthesis by monocytes (monos) adherent to platelets (pits) and collagen. […] The cells were subsequently adhered to Collagen Type 1 for 18 hours and MMP-9 expression was measured. […]

[2] = ESPS-2; compared with aspirin; cited from earlier work

| Compound | reduction in MMP-9 synthesis compared to untreated cells ([1]; human platelets and monocytes pretreated 15 minutes with 625 ng/ml) [%] | reduction in MMP-9 synthesis compared to untreated cells ([1]; human platelets and monocytes pretreated 15 minutes with 5 μg/ml) [%] | reduction of stroke risk [2] |
| --- | --- | --- | --- |
| CC(=O)Oc1ccccc1C(=O)O [ASA, acetylsalicalic acid] | 17 | – | – |
| OCCN(CCO)c1nc(N2CCCCC2)c2nc(N(CCO)CCO)nc(N3CCCCC3)c2n1 [DIP, 2,6-bis(diethanolamino)-4,8-dipiperidino-pyrimido[5,4-d]pyrimidine] | – | 61 | as effective as low-dose aspirin |
